Key:
[1] = molecular target: T1, Neuronal acetylcholine receptor; alpha3/beta4 (Homo sapiens, UniProt P30926+P32297); assay: Maximal agonist activity at human alpha-3-beta-4 ACHR expressed in HEK293 cells assessed as change in intracellular calcium concentration by FLIPR relative to nicotine; type: functional, cell-based
[2] = system: Rattus norvegicus; assay: Activity in rat formalin model measured as reduction in flinches at 0.19 umol/kg, ip; type: functional; parameters: scale not given: the % may be the effect or the level left
[3] = molecular target: T2, Neuronal acetylcholine receptor; alpha4/beta2 (Homo sapiens, UniProt P17787+P43681); assay: Agonist activity at human alpha4beta2 ACHR expressed in HEK293 cells assessed as change in intracellular calcium concentration by FLIPR; type: functional, cell-based
T2 sequence (P17787 whole entry): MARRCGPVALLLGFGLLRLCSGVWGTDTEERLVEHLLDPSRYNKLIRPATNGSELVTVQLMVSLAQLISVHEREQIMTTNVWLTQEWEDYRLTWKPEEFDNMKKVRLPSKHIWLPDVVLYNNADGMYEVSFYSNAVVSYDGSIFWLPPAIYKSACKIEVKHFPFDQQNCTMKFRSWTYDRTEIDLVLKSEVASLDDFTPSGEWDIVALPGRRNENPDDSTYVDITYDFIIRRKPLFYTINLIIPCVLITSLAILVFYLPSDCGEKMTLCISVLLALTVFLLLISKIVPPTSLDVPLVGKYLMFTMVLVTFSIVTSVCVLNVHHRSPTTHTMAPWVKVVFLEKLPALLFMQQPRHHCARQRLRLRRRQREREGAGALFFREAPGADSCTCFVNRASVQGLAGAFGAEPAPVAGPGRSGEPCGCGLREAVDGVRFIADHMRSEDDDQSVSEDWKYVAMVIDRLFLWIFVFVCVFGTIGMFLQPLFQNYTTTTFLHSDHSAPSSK
T2 sequence (P43681 whole entry): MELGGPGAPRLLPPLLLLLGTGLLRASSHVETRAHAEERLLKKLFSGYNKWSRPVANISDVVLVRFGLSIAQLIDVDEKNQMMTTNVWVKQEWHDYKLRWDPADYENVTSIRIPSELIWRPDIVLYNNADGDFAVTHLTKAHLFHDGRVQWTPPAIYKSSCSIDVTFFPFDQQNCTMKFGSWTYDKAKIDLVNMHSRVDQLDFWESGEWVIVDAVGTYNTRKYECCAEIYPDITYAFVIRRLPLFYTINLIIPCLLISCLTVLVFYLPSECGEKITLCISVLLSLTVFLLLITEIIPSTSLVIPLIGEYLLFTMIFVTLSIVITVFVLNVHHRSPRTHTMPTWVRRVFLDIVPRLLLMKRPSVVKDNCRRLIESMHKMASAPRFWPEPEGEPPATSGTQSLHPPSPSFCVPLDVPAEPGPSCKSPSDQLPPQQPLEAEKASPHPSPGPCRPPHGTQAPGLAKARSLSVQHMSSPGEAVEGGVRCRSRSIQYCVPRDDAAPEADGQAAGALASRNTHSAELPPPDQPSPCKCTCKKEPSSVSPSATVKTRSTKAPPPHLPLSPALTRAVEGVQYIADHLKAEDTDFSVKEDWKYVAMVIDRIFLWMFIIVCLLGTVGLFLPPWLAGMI

[4] = molecular target: T2, Neuronal acetylcholine receptor; alpha4/beta2; assay: Maximal agonist activity on human alpha-4-beta-2 ACHR expressed in HEK293 cells assessed as change in intracellular calcium concentration by FLIPR relative to nicotine; type: functional, cell-based
[5] = molecular target: Neuronal acetylcholine receptor; alpha4/beta2 (Rattus norvegicus, UniProt P09483+P12390); assay: Displacement of [3H]cytisine from alpha-4-beta-2 ACHR in rat brain homogenate; type: tissue-based
Sequence of Neuronal acetylcholine receptor; alpha4/beta2 (Rattus norvegicus, UniProt P09483+P12390) (P09483 whole entry): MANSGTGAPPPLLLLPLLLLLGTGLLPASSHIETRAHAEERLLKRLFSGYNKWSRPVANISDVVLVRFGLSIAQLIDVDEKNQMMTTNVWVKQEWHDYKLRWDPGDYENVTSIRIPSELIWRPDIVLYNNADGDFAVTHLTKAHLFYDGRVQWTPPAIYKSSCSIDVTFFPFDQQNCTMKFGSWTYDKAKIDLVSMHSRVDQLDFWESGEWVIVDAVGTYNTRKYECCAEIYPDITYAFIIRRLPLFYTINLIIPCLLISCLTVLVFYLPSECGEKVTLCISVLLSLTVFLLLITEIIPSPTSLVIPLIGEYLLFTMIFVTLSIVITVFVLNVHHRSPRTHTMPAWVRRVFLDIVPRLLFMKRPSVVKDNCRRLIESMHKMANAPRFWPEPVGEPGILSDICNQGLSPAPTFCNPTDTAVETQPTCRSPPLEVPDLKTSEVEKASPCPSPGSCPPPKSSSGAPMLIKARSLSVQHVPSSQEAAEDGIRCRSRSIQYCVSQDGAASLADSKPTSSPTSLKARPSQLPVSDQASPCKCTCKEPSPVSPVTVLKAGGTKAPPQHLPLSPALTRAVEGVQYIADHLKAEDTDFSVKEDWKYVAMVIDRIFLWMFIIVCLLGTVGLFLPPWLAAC
Sequence of Neuronal acetylcholine receptor; alpha4/beta2 (Rattus norvegicus, UniProt P09483+P12390) (P12390 whole entry): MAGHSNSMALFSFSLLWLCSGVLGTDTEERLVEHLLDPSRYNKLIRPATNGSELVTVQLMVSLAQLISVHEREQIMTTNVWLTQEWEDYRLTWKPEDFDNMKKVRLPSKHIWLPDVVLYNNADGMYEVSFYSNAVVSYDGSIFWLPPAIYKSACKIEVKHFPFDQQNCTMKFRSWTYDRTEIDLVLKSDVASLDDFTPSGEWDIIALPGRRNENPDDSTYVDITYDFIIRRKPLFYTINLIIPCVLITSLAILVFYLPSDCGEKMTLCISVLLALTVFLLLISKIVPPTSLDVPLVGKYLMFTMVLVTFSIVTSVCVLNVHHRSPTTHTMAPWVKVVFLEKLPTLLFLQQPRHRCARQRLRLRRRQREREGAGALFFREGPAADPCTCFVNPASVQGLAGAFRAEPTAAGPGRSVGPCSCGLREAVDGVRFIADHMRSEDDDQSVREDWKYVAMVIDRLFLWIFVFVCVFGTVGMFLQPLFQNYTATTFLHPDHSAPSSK

[6] = molecular target: T1, Neuronal acetylcholine receptor; alpha3/beta4; assay: Agonist activity at human alpha-3-beta-4 ACHR expressed in HEK293 cells assessed as change in intracellular calcium concentration by FLIPR; type: functional, cell-based

T1 sequence (P30926 whole entry): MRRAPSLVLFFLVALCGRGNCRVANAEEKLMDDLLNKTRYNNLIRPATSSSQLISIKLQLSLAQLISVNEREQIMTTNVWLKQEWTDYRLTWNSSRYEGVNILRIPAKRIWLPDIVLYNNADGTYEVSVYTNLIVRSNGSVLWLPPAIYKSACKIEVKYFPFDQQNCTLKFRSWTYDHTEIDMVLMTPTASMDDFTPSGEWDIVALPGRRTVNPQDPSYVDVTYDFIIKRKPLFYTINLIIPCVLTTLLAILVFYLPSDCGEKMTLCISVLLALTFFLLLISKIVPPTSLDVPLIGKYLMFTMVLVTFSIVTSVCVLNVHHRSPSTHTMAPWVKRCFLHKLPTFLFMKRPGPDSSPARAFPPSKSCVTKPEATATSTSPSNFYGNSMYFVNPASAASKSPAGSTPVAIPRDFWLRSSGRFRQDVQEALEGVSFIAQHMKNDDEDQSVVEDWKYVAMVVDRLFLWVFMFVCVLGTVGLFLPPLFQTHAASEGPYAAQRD
T1 sequence (P32297 whole entry): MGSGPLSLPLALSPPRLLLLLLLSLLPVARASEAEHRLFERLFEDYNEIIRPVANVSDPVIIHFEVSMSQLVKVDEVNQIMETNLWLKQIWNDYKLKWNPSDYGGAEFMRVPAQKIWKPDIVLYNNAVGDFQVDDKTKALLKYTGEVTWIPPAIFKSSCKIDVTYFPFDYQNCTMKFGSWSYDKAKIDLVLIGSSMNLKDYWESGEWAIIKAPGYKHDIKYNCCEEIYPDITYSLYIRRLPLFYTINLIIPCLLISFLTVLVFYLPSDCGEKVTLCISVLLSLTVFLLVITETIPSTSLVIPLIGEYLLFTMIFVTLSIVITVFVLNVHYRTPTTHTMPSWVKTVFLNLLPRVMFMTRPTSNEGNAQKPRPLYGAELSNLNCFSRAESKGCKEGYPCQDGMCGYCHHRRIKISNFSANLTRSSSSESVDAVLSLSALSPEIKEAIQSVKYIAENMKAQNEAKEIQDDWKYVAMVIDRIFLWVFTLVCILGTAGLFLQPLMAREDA

Which results are given for `Clc1ccc(N2C[C@@H]3CCNC[C@@H]32)cn1`?
Activity [1]: 129%; Activity [2]: 50%; EC50 [3]: 37.4 nM; Activity [4]: 94%; Ki [5]: 0.12 nM; EC50 [6]: 1390 nM

From ChEMBL document CHEMBL1138225, “Synthesis and structure-activity relationships of 3,8-diazabicyclo[4.2.0]octane ligands, potent nicotinic acetylcholine receptor agonists” (J Med Chem, 2006)
